Values quoted from earlier work, collected in patent US6770263B1, “Compositions and methods for the treatment of aches and pains” (NatureWell, Incorporated, priority 2001, dated 2004).

Settings: following the administration of 500 mg aspirin

- plasma level: 130 µM
Structure (SMILES): CC(=O)Oc1ccccc1C(=O)O [aspirin, acetylsalicylic acid]
